The values below come from article PMC11796312, “Multifunctional, Fluorene‐Based Modulator of Cholinergic and GABAergic Neurotransmission as a Novel Drug Candidate for Palliative Treatment of Alzheimer's Disease” (Angewandte Chemie (International Ed. in English), 2024).

Data set [1] concerns the target T1, human CYP2D6 (Homo sapiens, UniProt P10635).
T1 construct: purchased Thermo Fisher Scientific
As to the kind of experiment: Inhibition of human CYP450 isoforms (Vivid kits). It is filed as in vitro ADME. The settings on record: recombinant CYP2D6, 10 min. How it is done: nonlinear regression analysis using GraphPad Prism 9.0 software. All values are expressed as […]
Table S10. The viability of cells. neurotoxicity immuntoxicity
The results (viability values) are provided as a percentage of live cells with respect to DMSO (control sample)
Table S11. The viability of cells. […]
Inhibition of human CYP450 isoforms
The inhibitory potential of compound 6 toward human CYP1A2, CYP2C9, CYP2D6, and CYP3A4 enzymes was assessed using Vivid® CYP450 Screening Kits (Thermo Fisher Scientific, Waltham, MA, USA). A six -point concentration gradient of compound 6 was prepared in reaction buffer and pipetted onto a black 96 -well plate (Brand, Wertheim Germany) and then a mixture of the respective recombinant CYP isoenzyme and the NADPH regeneration system was added, following the manufacturer’s instructions. The DMSO concentration was maintained at 0.5% in all reaction v ariants including controls. […]
adding NADP+ and the respective CYP isoenzyme substrate. After a further 10-minute incubation at 37°C, the formation of the reaction product was measured as fluorescence using a SPARK microplate reader (TECAN, Männedorf, Switzerland). The half-maximal inhibitory concentration (IC50) values were calculated by fitting the data to sigmoidal Hill curves using GraphPad Prism version 10.1.2. […]

For data set [2], the system named is SH-SY5Y cells. As to the kind of experiment: Intracellular O2•-, DHE probe, SH-SY5Y. It is filed as cell-based, human.
The test system of data set [3] is Human neuroblastoma cells SH-SY5Y. Description: MTT cell viability assay, SH-SY5Y. The settings on record: Homo sapiens, 24 h, read-out: IC50 (MTT) ± SEM. The data set is classed as cell-based. The source says: Human neuroblastoma cells SH-SY5Y and mouse microglial cells SIM-A9 were used to evaluate cell viability, intracellular RONS, and malondialdehyde (MDA; CAS No. 542–78-9).
SH-SY5y cells were cultivated in Dulbecco's modified Eagle's medium (DMEM; Biosera, Nuaille, France) supplemented with 10% fetal bovine serum (Biosera) and 1% penicillin-streptomycin antibiotic solution (Sigma-Aldrich, St. Louis, MO, USA). The culture medium for SIM-A9 cells was further supplemented with donor horse serum (Biosera). The cells were incubated at 37 °C in a CO2 incubator (BINDER CO2 incubator CB 160, Tuttlingen, Germany) and routinely passaged by trypsinization at 75 –85% confluence.
Colorimetric Cell Viability Assay
The toxicological indices IC 50 used in the present study were measured utilizing 3-(4,5-dimethylthiazol-2-yl)-2,5-diphenyl-tetrazolium bromide (MTT) reduction assay after (1 picture or pasted object on this page, not shown here)
24 h incubation with tested compounds. […]
incubation, the cultivation medium containing serially diluted substances was aspirated and replaced with a fresh medium containing MTT at a concentration of 0.5 mg/mL and subsequently incubated at 37 °C for 1 h. […] Cell viability was assessed spectrophotometrically by the amount of formazan produced. Absorbance was measured at 570 nm with 650 nm reference wavelength on Spark (Tecan Group Ltd, Switzerland). […]

T1 sequence (P10635 whole entry): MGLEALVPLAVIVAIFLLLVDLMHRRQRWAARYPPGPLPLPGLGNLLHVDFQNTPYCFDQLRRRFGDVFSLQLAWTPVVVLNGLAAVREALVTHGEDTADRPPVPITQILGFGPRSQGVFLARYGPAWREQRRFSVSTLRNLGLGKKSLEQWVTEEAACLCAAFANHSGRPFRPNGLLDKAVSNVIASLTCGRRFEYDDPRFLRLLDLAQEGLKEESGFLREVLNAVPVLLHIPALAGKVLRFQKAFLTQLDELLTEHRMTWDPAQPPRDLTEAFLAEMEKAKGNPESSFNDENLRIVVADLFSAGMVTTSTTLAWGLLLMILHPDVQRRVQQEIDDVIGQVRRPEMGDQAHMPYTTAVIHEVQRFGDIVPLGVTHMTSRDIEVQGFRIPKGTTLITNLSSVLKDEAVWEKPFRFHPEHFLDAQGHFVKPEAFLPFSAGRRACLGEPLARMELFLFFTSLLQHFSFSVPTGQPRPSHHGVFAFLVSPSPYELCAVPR

Turning to `O[C@H](CNCC1CC1)[C@H](Cc1ccccc1)NC1c2ccccc2-c2ccccc21` [Compound 6], in data set [1], the CYP2D6 inhibition result is “CYP2D6 inhibitor”. Besides, in data set [2] (all concentrations and times), the “increase in intracellular O2•-” value was “No significant increase”. Further, the “decrease of O2•- level” value in data set [2] (conc. = IC50, 24 h) is listed as 15%. Besides, the IC50 in data set [3] is 3.38 ± 0.04 µM.
